# Source: patent publication US12565515B2, “1,2,4-oxadiazole compounds as inhibitors of CD47 signalling pathways” (AURIGENE ONCOLOGY LIMITED, priority 2018, dated 2026)
# Legend:
# A20 syngeneic lymphoma = assay: Efficacy in A20 syngeneic lymphoma model; type: in vivo; conditions: for TGI (%): per orally
# Text: Female Balb/c (BALB/cAnNTac) mice (6-8 weeks-old) bred in-house were used in this efficacy study in the A20 syngeneic lymphoma model. Animals were marked individually with tail marks and kept in cages that were identified by a cage card showing the study code, date of experimentation, sex and number of animals. During the experiment, the animals were weighed daily. A20 cell line (B-cell lymphoma line derived from a spontaneous reticulum cell neoplasm found in an old BALB/cAnN mouse) was procured from ATCC. When the mean tumor volumes reached approximately 75 mm^3, the animals were randomized based on tumour volumes into four groups of twelve animals in each group. Following randomization into various treatment groups, dosing with vehicle and Compound 6 was initiated. All treatments were administered per orally at a twice daily dosing frequency using a dose of 3 mg/kg, 10 mg/Kg and 30 mg/Kg. The treatment was continued for a period of 21 days after which the overall efficacy and tolerability were evaluated based on tumor volume and body weight changes observed during the treatment period. On treatment day 21, animals from all the treatment groups were sacrificed in sequential order at 1 hour after last dose administration.
# Individual animal body weights were recorded daily before the administration of test item throughout the experimental period. […] The tumor volumes were measured in all treatment group animals thrice a week (once every 2-3 days) using a digital Vernier callipers. From an ethical viewpoint, any treatment/control group with a mean tumor weight in excess of 10% of animal body weight were humanely sacrificed. As a measure of efficacy, the % T (treatment)/C(control) and % TGI (% Tumor growth inhibition) values were calculated. Graphs and statistical analysis were performed using GraphPad Prism®, Version 7.0. For analysis of tumor volume data, statistical comparison was done on Day 21 for all groups using One-way ANOVA with Dunnett's multiple comparison test. All analyses and comparisons was evaluated at the 5% (p<0.05) level. A “p” value less than 0.05 was considered as significant.
# H929 cells = assay: FACS based phagocytosis assay; type: cell-based; conditions: NCI-H929, human macrophages, CFSE stained H929 cells, flow cytometry, normalized to positive control B6H12
# Protocol: (§1) DPBS (Gibco), RPMI 1640 WITH HEPES AND L-GLN-500 ML (Lonza), Recombinant Human M-CSF (R& D systems), CD47 Monoclonal Antibody (B6H12), Functional Grade antibody (Ebioscience), Mouse IgG1 kappa Isotype Control, Functional Grade (Ebioscience), Vacutainer (multiple sample luer adapter) (BD), Vacutainer (sodium heparin (NH) 158USP units, Blood collection tubes (BD), Histopaque (density—1.077 gm/ml) (SIGMA 1077), Trypan Blue solution (SIGMA-T8154), Hemacytometer (Bright line-SIGMA Z359629), Scalp vein infusion set (JMS), Cell Dissociation buffer (Gibco), 48-well sterile flat bottom plates (Corning), Luciferase expressing Raji cells (Generated in house by trasfection of luciferase gene in Raji cells) Luminometer, Hygromycin B (Invitrogen), Bright Glo luciferase assay system (Promega), 96 well plate, polystyrene, high band, white flat bottom wells (Sigma CLS3912), APC anti-mouse/human CD11b Antibody (Biolegend), H929 cells, CFSE (Ebioscience), Fetal Bovine Serum (Gibco Cat #: 10437028), Round-Bottom FACs Tubes (BD), Flowcytometer BD FACS Verse, 96 well plates, ultra-low attachment (Corning).
# Monocytes were isolated from blood of healthy donor and cultured for 6-8 days using 10% RPMI (Roswell Park Memorial Institute) media and recombinant human M-CSF to differentiate into macrophages. Media was changed every alternate day. Simultaneously, H929 cells were cultured in 10% RPMI media with 50 μg/mL of betamercaptoethanol in tissue culture flask. On the day of phagocytosis adherent macrophages were serum starved for 2 hours in RPMI media. Simultaneously H929 cells were stained with 0.3 μM CFSE stain. After washing, 0.2 million CFSE stained H929 cells were incubated with anti-human CD47 or Mouse IgG1 K Isotype Control antibody or various conc of test item in serum free media for 30 min at 37° C. After 2 hours of serum starvation macrophages were dissociated with cell dissociation buffer and collected by gentle scraping and added at conc of 0.05 million per well into respective wells of the ultra-low attachment 96 well plate seeded with H929 cells. Phagocytosis was allowed for 2 hours. After 2 hours, cells were washed with PBS and stained with 1 μL of anti-human CD11b-APC antibody prepared in 100 μL of PBS for 30 min in 4° C. in dark. Cells were further washed and fixed in 100 μL of fixation buffer until acquired by Flow cytometry. The extent of phagocytosis of H929 cells by human macrophages was measured by acquiring the samples by Flow cytometry. Samples acquired by Flow cytometry were analysed by using FlowJo software. Each experimental condition was carried out in duplicate. Cells positive for FITC (CFSE) and CD11b-APC were considered as phagocytosed macrophages. Raw data of % phagocytosis by macrophages were obtained in the form of excel sheet from FlowJo. % phagocytosis from isotype control (background phagocytosis) was subtracted from % phagocytosis of macrophages treated with compound as well as other controls to get corrected phagocytosis values. Corrected phagocytosis values of compound treated samples were normalized with phagocytosis of positive control (B6H12) using the formula: % normalized phagocytosis=[(corrected % phagocytosis of compound)/(corrected phagocytosis of B6H12)*100]
# [1] = test system: luciferase expressing Raji cells; assay: Luciferase based phagocytosis assay; type: cell-based; conditions: human monocyte-derived macrophages, luminescence, read-out: % normalized phagocytosis (at 10 μM)
# Protocol: as §1
# In vitro phagocytosis assay was performed to evaluate the ability of test item to enhance the phagocytic activity of macrophages. Monocytes were isolated from blood of healthy donor and cultured for 6-8 days using 10% RPMI (Roswell Park Memorial Institute) media and recombinant human M-CSF to differentiate into macrophages. Media was changed every alternate day. After differentiation, adherent macrophages were collected by gentle scraping and cultured in 10% RPMI overnight at a density of 0.1 million per well in 48 well tissue culture plate. Simultaneously, luciferase expressing Raji cells were cultured in 10% RPMI media with 100 μg/mL of hygromycin B in tissue culture flask. On the day of phagocytosis, macrophages were serum starved for 2 hours. 0.4 million luciferase expressing Raji cells per well were incubated with anti human CD47 purified B6H12 or Mouse IgG1 K Isotype Control antibody or various concentrations of test item in serum free media for 30 min at 37° C. and added into respective well of the 48 well plate seeded with macrophages. After 2 hours, cells were washed twice with PBS and 100 μL of serum free RPMI was added to each well. Additionally, 50 μL Bright Glow reagent was added to each well followed by mixing of cells and incubated for 5 min in dark. Luminescence reading was taken using plate reader after transferring the content of each well to white plate. Intensity of luminescence indicated the extent of phagocytosis. Each experimental condition was carried out in duplicate.
smiles,measurement,setting,value
NC(=O)CC[C@H](N)c1noc(CNC(=O)N2CCCC2C(=O)O)n1 (stereo partly shown) [Compound 6],TGI (%),"A20 syngeneic lymphoma; 3 mg/kg (bid), 21 days, Balb/c mice",53%
same,TGI (%),"A20 syngeneic lymphoma; 10 mg/kg (bid), 21 days, Balb/c mice",64%
same,TGI (%),"A20 syngeneic lymphoma; 30 mg/kg (bid), 21 days, Balb/c mice",67%
same,"tolerability (body weight, clinical signs of toxicity)","A20 syngeneic lymphoma; 3, 10 and 30 mg/kg bid per orally, 21 days, Balb/c mice",well tolerated without any signs of body weight loss and/or clinical signs of toxicity
same,"antitumor efficacy, significance of tumor growth inhibition","A20 syngeneic lymphoma; all the tested dose levels (3, 10, 30 mg/kg bid), Day 21, one-way ANOVA",statistically significant tumor growth inhibition (TGI) at all the tested dose levels
same,activation at 10 µM,H929 cells,74%
same,activation at 10 µM,[1],66%
